Data reported in patent publication US9995734B2, “Human T cell line assay for evaluating the immunologic identity of glatiramer acetate preparations” (Mylan Inc., priority 2013, dated 2018).
Marks after values point to notes of the source that are not given here.

Tests used:
[1] = tested on: Donor 1 COP T-Cell Lines; test: ATP proliferation assay (CellTiter Glo), Donor 1 COP T-cell lines, incl. reactivity to non-canonical GA peptides; assay type: cell-based, human; details: for ATP Proliferation Assay, Mean: Day 56, second assay; for luminescent ATP proliferation assay, mean: no antigen 5673 (Table 9); for Proliferation (luminescent ATP assay), Mean: Day 56 of culturing
In short: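 Donor 1 COP-derived T-cell lines restimulated with GA, COP, GMA or non-canonical GA peptides (1–30 µg/mL) alongside mitomycin C-treated autologous PBMC or B-LCL APC. Proliferation read as ATP content by CellTiter Glo luminescence, 48 h after stimulation in later screens (3 days in initial split-well screens). Controls: no antigen (GMA series), MBP (COP series).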

[2] = tested on: Donor 3 GMA T-Cell Lines; test: ATP proliferation assay (CellTiter Glo), Donor 3 GMA T-cell lines, incl. reactivity to non-canonical GA peptides; assay type: cell-based, human

glatiramer acetate [COP]
ATP proliferation assay ([1]; 222-1C5, 10 μg/mL, Day 14, control 7087): 14906 RLU
ATP proliferation assay ([1]; 222-1F8, 10 μg/mL, Day 14, control 2308): 6519 RLU
ATP proliferation assay ([1]; 222-1G8, 10 μg/mL, Day 14, control 4030): 8308 RLU
ATP proliferation assay ([1]; 222-1H12, 10 μg/mL, Day 14, control 8141): 23836 RLU
ATP proliferation assay ([1]; 222-2B8, 10 μg/mL, Day 14, control 5543): 13600 RLU
ATP proliferation assay ([1]; 222-2B11, 10 μg/mL, Day 14, control 6340): 16460 RLU
ATP proliferation assay ([1]; 222-2C1, 10 μg/mL, Day 14, control 8350): 20166 RLU
ATP proliferation assay ([1]; 222-2C3, 10 μg/mL, Day 14, control 6839): 14045 RLU
ATP proliferation assay ([1]; 222-2C5, 10 μg/mL, Day 14, control 4695): 9577 RLU
ATP proliferation assay ([1]; 222-2D2, 10 μg/mL, Day 14, control 7135): 16271 RLU
ATP proliferation assay ([1]; 222-2D8, 10 μg/mL, Day 14, control 13024): 26495 RLU
ATP Proliferation Assay, Mean ([1]; 222-2D8, 1 μg/mL (Table 7)): 7229
ATP Proliferation Assay, Mean ([1]; 222-2D8, 3 μg/mL (Table 7)): 134127
ATP Proliferation Assay, Mean ([1]; 222-2D8, 10 μg/mL (Table 7)): 146092
ATP proliferation assay ([1]; 222-2D8, Day 56, 48 hours after stimulation, 1 μg/mL (Table 6)): 4888
ATP proliferation assay ([1]; 222-2D8, Day 56, 48 hours after stimulation, 3 μg/mL (Table 6)): 6392
ATP proliferation assay ([1]; 222-2D8, Day 56, 48 hours after stimulation, 10 μg/mL (Table 6)): 12161
ATP proliferation assay ([1]; 222-2E1, 10 μg/mL, Day 14, control 8035): 17064 RLU
ATP proliferation assay ([1]; 222-2F12, 10 μg/mL, Day 14, control 9703): 28022 RLU
luminescent ATP proliferation assay, mean ([1]; 222-2F12, Day 56, 3 μg/mL): 233087
luminescent ATP proliferation assay, mean ([1]; 222-2F12, Day 56, 10 μg/mL): 230009
luminescent ATP proliferation assay, mean ([1]; 222-2F12, Day 56, 30 μg/mL): 118769
ATP proliferation assay ([1]; 222-2F12, Day 56, 48 hours after stimulation, 1 μg/mL (Table 8)): 5281
ATP proliferation assay ([1]; 222-2F12, Day 56, 48 hours after stimulation, 3 μg/mL (Table 8)): 8684
ATP proliferation assay ([1]; 222-2F12, Day 56, 48 hours after stimulation, 10 μg/mL (Table 8)): 11747
ATP proliferation assay ([1]; 222-2G4, 10 μg/mL, Day 14, control 2566): 6812 RLU
ATP proliferation assay ([1]; 222-2G12, 10 μg/mL, Day 14, control 3913): 9899 RLU
Proliferation (luminescent ATP assay), Mean ([1]; T-cell line 222-1H12, 3 μg/mL antigen, 0 μg/mL 5974): 146874 RLU
Proliferation (luminescent ATP assay), Mean ([1]; T-cell line 222-1H12, 10 μg/mL antigen, 0 μg/mL 5974): 168163 RLU
Proliferation (luminescent ATP assay), Mean ([1]; T-cell line 222-1H12, 30 μg/mL antigen, 0 μg/mL 5974): 68492 RLU
Proliferation (luminescent ATP assay), Mean ([1]; T-cell line 222-2F12, 3 μg/mL antigen, 0 μg/mL 5673): 233087
Proliferation (luminescent ATP assay), Mean ([1]; T-cell line 222-2F12, 10 μg/mL antigen, 0 μg/mL 5673): 230009
Proliferation (luminescent ATP assay), Mean ([1]; T-cell line 222-2F12, 30 μg/mL antigen, 0 μg/mL 5673): 118769
ATP proliferation signal relative to control ([1]; fifteen Donor 1 COP T-cell lines of Table 5, 10 μg/mL): at least twice the signal as control
response in proliferation assay ([2]; 165-B5G, 165-D8G, 165-E7G, 165-F5G, Day 56, 0, 1, 5, 10, 100 μg/mL, GMA and COP responses comparable): responded well
Proliferation (luminescent ATP assay), Mean ([2]; T-cell line 165-05G, 1 μg/mL antigen, Day 50 of culturing, No Antigen Value 2149): 6791 RLU
Proliferation (luminescent ATP assay), Mean ([2]; T-cell line 165-05G, 3 μg/mL antigen, Day 50 of culturing, No Antigen Value 2149): 42584 RLU
Proliferation (luminescent ATP assay), Mean ([2]; T-cell line 165-05G, 10 μg/mL antigen, Day 50 of culturing, No Antigen Value 2149): 56893 RLU
Proliferation (luminescent ATP assay), Mean ([2]; T-cell line 165-05G, 30 μg/mL antigen, Day 50 of culturing, No Antigen Value 2149): 55001 RLU
Mean, ATP proliferation assay ([2]; T-cell line 165-B2G, 1 μg/mL, Day 40): 3779
Mean, ATP proliferation assay ([2]; T-cell line 165-B2G, 3 μg/mL, Day 40): 11983
Mean, ATP proliferation assay ([2]; T-cell line 165-B2G, line COP 10 μg/mL, footnote: well contained 3 μg/mL COP, Day 40): 10980*
Proliferation (luminescent ATP assay), Mean ([2]; T-cell line 165-B5G, 1 μg/mL antigen, Day 81 of culturing, No Antigen Value 2432): 6275 RLU
Mean, ATP proliferation assay ([2]; T-cell line 165-B5G, 1 μg/mL, Day 40): 3672
Proliferation (luminescent ATP assay), Mean ([2]; T-cell line 165-B5G, 3 μg/mL antigen, Day 81 of culturing, No Antigen Value 2432): 7499 RLU
Mean, ATP proliferation assay ([2]; T-cell line 165-B5G, 3 μg/mL, Day 40): 3673
Proliferation (luminescent ATP assay), Mean ([2]; T-cell line 165-B5G, 10 μg/mL antigen, Day 81 of culturing, No Antigen Value 2432): 10914 RLU
Mean, ATP proliferation assay ([2]; T-cell line 165-B5G, 10 μg/mL, Day 40): 14282
Proliferation (luminescent ATP assay), Mean ([2]; T-cell line 165-B5G, 30 μg/mL antigen, Day 81 of culturing, No Antigen Value 2432): 13974 RLU
Mean, ATP proliferation assay ([2]; T-cell line 165-C4G, 1 μg/mL, Day 40): 3143
Mean, ATP proliferation assay ([2]; T-cell line 165-C4G, 3 μg/mL, Day 40): 3959
Mean, ATP proliferation assay ([2]; T-cell line 165-C4G, line COP 10 μg/mL, footnote: well contained 3 μg/mL COP, Day 40): 3717*
Mean, ATP proliferation assay ([2]; T-cell line 165-C5G, 1 μg/mL, Day 40): 12667
Mean, ATP proliferation assay ([2]; T-cell line 165-C5G, 3 μg/mL, Day 40): 24835
Mean, ATP proliferation assay ([2]; T-cell line 165-C5G, 10 μg/mL, Day 40): 47537
Mean, ATP proliferation assay ([2]; T-cell line 165-C8G, 1 μg/mL, tested with the Donor 3 COP lines of Table 25): 400 RLU
Mean, ATP proliferation assay ([2]; T-cell line 165-C8G, 3 μg/mL, tested with the Donor 3 COP lines of Table 25): 4821 RLU
Mean, ATP proliferation assay ([2]; T-cell line 165-C8G, 10 μg/mL, tested with the Donor 3 COP lines of Table 25): 22961 RLU
Mean, ATP proliferation assay ([2]; T-cell line 165-D8G, 1 μg/mL, Day 40): 8088
Mean, ATP proliferation assay ([2]; T-cell line 165-D8G, 3 μg/mL, Day 40): 8722
Mean, ATP proliferation assay ([2]; T-cell line 165-D8G, 10 μg/mL, Day 40): 28872
Proliferation (luminescent ATP assay), Mean ([2]; T-cell line 165-E7G, 1 μg/mL antigen, Day 81 of culturing, No Antigen Value 2145): 4217 RLU
Mean, ATP proliferation assay ([2]; T-cell line 165-E7G, 1 μg/mL, Day 40): 3794
Proliferation (luminescent ATP assay), Mean ([2]; T-cell line 165-E7G, 3 μg/mL antigen, Day 81 of culturing, No Antigen Value 2145): 5366 RLU
Mean, ATP proliferation assay ([2]; T-cell line 165-E7G, 3 μg/mL, Day 40): 4147
Proliferation (luminescent ATP assay), Mean ([2]; T-cell line 165-E7G, 10 μg/mL antigen, Day 81 of culturing, No Antigen Value 2145): 7619 RLU
Mean, ATP proliferation assay ([2]; T-cell line 165-E7G, 10 μg/mL, Day 40): 12565
Proliferation (luminescent ATP assay), Mean ([2]; T-cell line 165-E7G, 30 μg/mL antigen, Day 81 of culturing, No Antigen Value 2145): 7161 RLU
Proliferation (luminescent ATP assay), Mean ([2]; T-cell line 165-E9G, 1 μg/mL antigen, Day 50 of culturing, No Antigen Value 1742): 1999 RLU
Mean, ATP proliferation assay ([2]; T-cell line 165-E9G, 1 μg/mL, Day 40): 3216
Proliferation (luminescent ATP assay), Mean ([2]; T-cell line 165-E9G, 3 μg/mL antigen, Day 50 of culturing, No Antigen Value 1742): 5538 RLU
Mean, ATP proliferation assay ([2]; T-cell line 165-E9G, 3 μg/mL, Day 40): 5584
Mean, ATP proliferation assay ([2]; T-cell line 165-E9G, 10 μg/mL, Day 40): 25454
Proliferation (luminescent ATP assay), Mean ([2]; T-cell line 165-E9G, 30 μg/mL antigen, Day 50 of culturing, No Antigen Value 1742): 38286 RLU
Proliferation (luminescent ATP assay), Mean ([2]; T-cell line 165-E9G, 10 μpg/mL antigen, Day 50 of culturing, No Antigen Value 1742): 38813 RLU
Mean, ATP proliferation assay ([2]; T-cell line 165-F2G, 1 μg/mL, Day 40): 1700
Mean, ATP proliferation assay ([2]; T-cell line 165-F2G, 3 μg/mL, Day 40): 1332
Mean, ATP proliferation assay ([2]; T-cell line 165-F2G, 10 μg/mL, Day 40): 1554
Mean, ATP proliferation assay ([2]; T-cell line 165-F5G, 1 μg/mL, Day 40): 4332
Mean, ATP proliferation assay ([2]; T-cell line 165-F5G, 3 μg/mL, Day 40): 6099
Mean, ATP proliferation assay ([2]; T-cell line 165-F5G, 10 μg/mL, Day 40): 19498
Mean, ATP proliferation assay ([2]; T-cell line 165-F8G, 1 μg/mL, Day 40): 3690
Mean, ATP proliferation assay ([2]; T-cell line 165-F8G, 3 μg/mL, Day 40): 3184
Mean, ATP proliferation assay ([2]; T-cell line 165-F8G, 10 μg/mL, Day 40): 10663
Proliferation (luminescent ATP assay), Mean ([2]; T-cell line 165-F10G, 1 μg/mL antigen, Day 50 of culturing, No Antigen Value 3752): 6350 RLU
Mean, ATP proliferation assay ([2]; T-cell line 165-F10G, 1 μg/mL, Day 40): 8427
Proliferation (luminescent ATP assay), Mean ([2]; T-cell line 165-F10G, 3 μg/mL antigen, Day 50 of culturing, No Antigen Value 3752): 40495 RLU
Proliferation (luminescent ATP assay), Mean ([2]; T-cell line 165-F10G, 10 μg/mL antigen, Day 50 of culturing, No Antigen Value 3752): 58726 RLU
Mean, ATP proliferation assay ([2]; T-cell line 165-F10G, 10 μg/mL, Day 40): 29986
Proliferation (luminescent ATP assay), Mean ([2]; T-cell line 165-F10G, 30 μg/mL antigen, Day 50 of culturing, No Antigen Value 3752): 60488 RLU
Mean, ATP proliferation assay ([2]; T-cell line 165-F10G, line COP 3 μg/mL, footnote: well contained 10 μg/mL COP, Day 40): 31303**
Proliferation (luminescent ATP assay), Mean ([2]; T-cell line 165-H11G, 1 μg/mL antigen, Day 50 of culturing, No Antigen Value 1485): 8610 RLU
Mean, ATP proliferation assay ([2]; T-cell line 165-H11G, 1 μg/mL, Day 40): 9102
Proliferation (luminescent ATP assay), Mean ([2]; T-cell line 165-H11G, 3 μg/mL antigen, Day 50 of culturing, No Antigen Value 1485): 37551 RLU
Mean, ATP proliferation assay ([2]; T-cell line 165-H11G, 3 μg/mL, Day 40): 15637
Proliferation (luminescent ATP assay), Mean ([2]; T-cell line 165-H11G, 10 μg/mL antigen, Day 50 of culturing, No Antigen Value 1485): 50044 RLU
Mean, ATP proliferation assay ([2]; T-cell line 165-H11G, 10 μg/mL, Day 40): 43786
Proliferation (luminescent ATP assay), Mean ([2]; T-cell line 165-H11G, 30 μg/mL antigen, Day 50 of culturing, No Antigen Value 1485): 32898 RLU
responsiveness in proliferation assay ([2]; all 8 Donor 3 GMA cell lines tested, Day 32, 10 μg/mL (Table 19)): responsive
responsiveness in proliferation assay ([2]; eleven of the 12 cell lines (all but F2G), Day 40, 1, 3 or 10 μg/mL (Table 21)): responsive
